The values that follow come from US10508104B2, “6-hydroxy-5-(phenyl/heteroarylsulfonyl)pyrimidin-4(1H)-one as APJ agonists” (Bristol-Myers Squibb Company, priority 2016, dated 2019).

Chain of human APJ receptor (P35414 whole entry): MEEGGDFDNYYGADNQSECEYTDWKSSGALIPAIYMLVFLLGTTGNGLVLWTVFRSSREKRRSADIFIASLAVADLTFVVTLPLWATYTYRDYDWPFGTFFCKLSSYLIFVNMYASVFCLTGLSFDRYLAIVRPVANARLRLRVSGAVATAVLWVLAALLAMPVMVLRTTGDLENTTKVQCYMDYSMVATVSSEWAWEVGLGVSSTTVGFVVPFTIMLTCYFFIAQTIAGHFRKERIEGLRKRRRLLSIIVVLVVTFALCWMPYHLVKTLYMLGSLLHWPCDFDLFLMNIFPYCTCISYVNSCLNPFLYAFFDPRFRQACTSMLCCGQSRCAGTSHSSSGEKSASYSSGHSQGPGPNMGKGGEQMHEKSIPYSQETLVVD

The first experiment addresses human APJ receptor (Homo sapiens (Human), UniProt P35414). The experiment is described as follows: Intracellular cAMP accumulation assay (APJ hcAMP, HTRF). It is filed as cell-based. Conditions: HEK293 cells stably expressing human APJ receptor; inhibition of forskolin-mediated cAMP production; read-out: Human APJ cAMP EC50 Potency range. In a few lines:
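HEK293 cells stably expressing human APJ, 5,000 per well, incubated 30 min at rt with compound, […] and 2 μM forskolin. cAMP measured by HTRF against a cAMP standard curve as inhibition of forskolin-driven production. EC50 from variable-slope sigmoidal fit.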
With `CCCCc1nc(=O)c(S(=O)(=O)c2ccc(-c3ccc(F)nc3C)cn2)c(O)n1[C@@H](CC)c1cccc(C#N)c1` [Example 454, 3-[(1S)-1-[2-butyl-5-({6′-fluoro-2′-methyl-[3,3′-bipyridine]-6-yl}sulfonyl)-6-hydroxy-4-oxo-1,4-dihydropyrimidin-1-yl]propyl]benzonitrile], the 50% effective concentration (EC50) lay within 0.01 to 10 nM.
Still for that read-out and setting: for `COC[C@@H](c1cc(F)cc(F)c1)n1c(COC(C)C)nc(=O)c(S(=O)(=O)c2ccc(Br)cc2)c1O` [Example 368, 5-(4-bromobenzenesulfonyl)-1-[(1R)-1-(3,5-difluorophenyl)-2-methoxyethyl]-6-hydroxy-2-[(propan-2-yloxy)methyl]-1,4-dihydropyrimidin-4-one] the value was 0.01 to 10 nM; for `CCCCc1nc(=O)c(S(=O)(=O)c2ccc(-c3cccnc3C)cc2)c(O)n1[C@@H]1CCc2ccc(C#N)cc21` [Example 547, (3R)-3-{2-butyl-6-hydroxy-5-[4-(2-methylpyridin-3-yl)benzenesulfonyl]-4-oxo-1,4-dihydropyrimidin-1-yl}-2,3-dihydro-1H-indene-5-carbonitrile], 10 to 100 nM.
On the same count and under the same terms, for `CCCCc1nc(=O)c(S(=O)(=O)c2ccc(-c3cccnc3F)cc2)c(O)n1[C@@H](CC)c1cccc(C#N)c1` [Example 505, 3-[(1S)-1-{2-butyl-5-[4-(2-fluoropyridin-3-yl)benzenesulfonyl]-6-hydroxy-4-oxo-1,4-dihydropyrimidin-1-yl}propyl]benzonitrile] the value was 0.01 to 10 nM; for `CCCCc1nc(=O)c(S(=O)(=O)c2ccc(-c3ccnc(F)c3C)cc2)c(O)n1[C@@H](CC)C1CCOCC1` [Example 528, 2-butyl-5-[4-(2-fluoro-3-methylpyridin-4-yl)benzenesulfonyl]-6-hydroxy-1-[(1S)-1-(oxan-4-yl)propyl]-1,4-dihydropyrimidin-4-one], 0.01 to 10 nM.
Still for that read-out and setting: for `CCCCc1nc(=O)c(S(=O)(=O)C2CCNCC2)c(O)n1-c1c(OC)cccc1OC` [Example 106, 2-Butyl-1-(2,6-dimethoxyphenyl)-6-hydroxy-5-(piperidin-4-ylsulfonyl)pyrimidin-4(1H)-one] the value was 10 to 100 nM; for `CCOCc1nc(=O)c(S(=O)(=O)c2ccc(-c3cccnc3C)cc2)c(O)n1[C@@H](COC)c1cc(F)cc(F)c1` [Example 386, 1-[(1R)-1-(3,5-difluorophenyl)-2-methoxyethyl]-2-(ethoxymethyl)-6-hydroxy-5-[4-(2-methylpyridin-3-yl)benzenesulfonyl]-1,4-dihydropyrimidin-4-one], 0.01 to 10 nM; for `CCCCc1nc(=O)c(S(=O)(=O)[C@H]2CC[C@H](OCc3ccccc3)CC2)c(O)n1-c1c(OC)cccc1OC` [Example 366, 2-butyl-1-(2,6-dimethoxyphenyl)-6-hydroxy-5-{[(1r,4r)-4-(benzyloxy)cyclohexyl]sulfonyl}-1,4-dihydropyrimidin-4-one], 0.01 to 10 nM.
Take `CC[C@@H](c1cccc(C#N)c1)n1c(CC2CC2)nc(=O)c(S(=O)(=O)c2ccc(-c3ccccc3C(N)=O)cc2)c1O` [Example 468, 4′-({1-[(1S)-1-(3-cyanophenyl)propyl]-2-(cyclopropylmethyl)-6-hydroxy-4-oxo-1,4-dihydropyrimidin-5-yl}sulfonyl)-[1,1′-biphenyl]-2-carboxamide]: the EC50 lay in the range of 0.01 to 10 nM.
In the case of `CCCCc1nc(=O)c(S(=O)(=O)c2ccc(-c3ccccc3C(=O)N(C)C)cc2)c(O)n1[C@@H](CC)c1ccc(C#N)c(F)c1` [Example 521, 4′-({2-butyl-1-[(1S)-1-(4-cyano-3-fluorophenyl)propyl]-6-hydroxy-4-oxo-1,4-dihydropyrimidin-5-yl}sulfonyl)-N,N-dimethyl-[1,1′-biphenyl]-2-carboxamide], the EC50 lay within 0.01 to 10 nM.
On the same count and under the same terms, with `CCOCc1nc(=O)c(S(=O)(=O)c2ccc(-c3ccnc(F)c3C)c(F)c2)c(O)n1C(COC)c1cccc(F)c1` (stereo not shown) [Example 373, 2-(ethoxymethyl)-5-[3-fluoro-4-(2-fluoro-3-methylpyridin-4-yl)benzenesulfonyl]-1-[1-(3-fluorophenyl)-2-methoxyethyl]-6-hydroxy-1,4-dihydropyrimidin-4-one] the figure was 0.01 to 10 nM; with `COC[C@@H](c1cccc(C#N)c1)n1c(COC(C)C)nc(=O)c(S(=O)(=O)c2ccc(-c3cnccc3C#N)cc2)c1O` [Example 411, 3-[4-({1-[(1R)-1-(3-cyanophenyl)-2-methoxyethyl]-6-hydroxy-4-oxo-2-[(propan-2-yloxy)methyl]-1,4-dihydropyrimidin-5-yl}sulfonyl)phenyl]pyridine-4-carbonitrile], 0.01 to 10 nM; with `CCCCc1nc(=O)c(S(=O)(=O)c2ccc(-c3nccn3C)cc2)c(O)n1-c1c(OC)cccc1OC` [Example 79, 2-Butyl-1-(2,6-dimethoxyphenyl)-6-hydroxy-5-((4-(1-methyl-1H-imidazol-2-yl)phenyl)sulfonyl)pyrimidin-4(1H)-one], 0.01 to 10 nM.

The same experiment, now with this note: human APJ, cAMP accumulation; read-out: Human APJ cAMP EC50 Potency range.
Turning to `CC[C@@H](c1ccccc1)n1c(COC(C)C)nc(=O)c(S(=O)(=O)c2ccc(-c3cccnc3C)cc2)c1O` [Example 313, 6-hydroxy-5-[4-(2-methylpyridin-3-yl)benzenesulfonyl]-1-[(1S)-1-phenylpropyl]-2-[(propan-2-yloxy)methyl]-1,4-dihydropyrimidin-4-one], the concentration giving a half-maximal response (EC50) is 0.01 to 10 nM.
Still for that read-out and setting: with `CCCCc1nc(O)c(S(=O)(=O)c2ccc(Br)cc2)c(=O)n1[C@H]1CCCc2ccccc21` [Example 235, 5-(4-bromobenzenesulfonyl)-2-butyl-6-hydroxy-3-[(1S)-1,2,3,4-tetrahydronaphthalen-1-yl]-3,4-dihydropyrimidin-4-one] the figure was 10 to 100 nM; with `CCCCc1nc(=O)c(S(=O)(=O)c2ccc(-c3ccnc(F)c3C)cc2)c(O)n1[C@H]1CCCc2ccccc21` [Example 243, 2-butyl-5-[4-(2-fluoro-3-methylpyridin-4-yl)benzenesulfonyl]-6-hydroxy-1-[(1S)-1,2,3,4-tetrahydronaphthalen-1-yl]-1,4-dihydropyrimidin-4-one], 0.01 to 10 nM; with `COC[C@@H](c1ccccc1)n1c(C2CCCO2)nc(=O)c(S(=O)(=O)c2ccc(-c3ccncc3C)cc2)c1O` (single isomer, unassigned) [Example 352], 0.01 to 10 nM.
On the same count and under the same terms, with `CCCCc1nc(=O)c(S(=O)(=O)c2ccc(-c3ccncc3C)cc2)c(O)n1[C@@H](CC)c1ccccc1` [Example 291, 2-butyl-6-hydroxy-5-[4-(3-methylpyridin-4-yl)benzenesulfonyl]-1-[(1S)-1-phenylpropyl]-1,4-dihydropyrimidin-4-one] the figure was 0.01 to 10 nM.
With `CCCCc1nc(=O)c(S(=O)(=O)c2ccc(-c3ccncc3C)cc2)c(O)n1[C@@H](C)c1ccc(OC)cc1` [Example 236, 2-butyl-6-hydroxy-1-[(1S)-1-(4-methoxyphenyl)ethyl]-5-[4-(3-methylpyridin-4-yl)benzenesulfonyl]-1,4-dihydropyrimidin-4-one], the EC50 lay in the range of 0.01 to 10 nM.
Still for that read-out and setting: for `CCOCc1nc(=O)c(S(=O)(=O)c2ccc(-c3ccnc(F)c3C)cc2)c(O)n1[C@@H](COC)c1ccccc1` [Example 316, 2-(ethoxymethyl)-5-[4-(2-fluoro-3-methylpyridin-4-yl)benzenesulfonyl]-6-hydroxy-1-[(1R)-2-methoxy-1-phenylethyl]-1,4-dihydropyrimidin-4-one] the value was 0.01 to 10 nM.

The same experiment, now with this note: human APJ, intracellular cAMP accumulation; read-out: Human APJ cAMP EC50 Potency range.
Take `CCCc1nc(=O)c(S(=O)(=O)c2ccc(-c3ccncc3C)cc2)c(O)n1[C@@H](COC)c1ccccc1` [Example 175, 6-hydroxy-1-[(1R)-2-methoxy-1-phenylethyl]-5-[4-(3-methylpyridin-4-yl)benzenesulfonyl]-2-propyl-1,4-dihydropyrimidin-4-one]: the EC50 was 0.01 to 10 nM.
Still for that read-out and setting: with `COc1cccc(OC)c1-n1c(CCC(C)C)nc(=O)c(S(=O)(=O)c2ccc(-c3ccc(F)cc3)cc2)c1O` [Example 12, 1-(2,6-dimethoxyphenyl)-5-[4-(4-fluorophenyl)benzene-sulfonyl]-6-hydroxy-2-(3-methylbutyl)-1,4-dihydropyrimidin-4-one] the figure was 0.01 to 10 nM.
Take `CCCCc1nc(=O)c(S(=O)(=O)c2ccccc2)c(O)n1-c1c(OC)cccc1OC` [Example 2, 5-(benzenesulfonyl)-2-butyl-1-(2,6-dimethoxyphenyl)-6-hydroxy-1,4-dihydropyrimidin-4-one]: the EC50 lay within 0.01 to 10 nM.
For the molecule `CCCCc1nc(=O)c(S(=O)(=O)C2CCN(Cc3cccc(F)c3F)CC2)c(O)n1-c1c(CC)cccc1CC` [Example 109, 2-butyl-1-(2,6-diethylphenyl)-5-({1-[(2,3-difluorophenyl)methyl]piperidin-4-yl}sulfonyl)-6-hydroxy-1,4-dihydropyrimidin-4-one], the EC50 lay within 0.01 to 10 nM.
The same measure, in the same setting: for `CCCCc1nc(=O)c(S(=O)(=O)c2ccc(-c3ccncc3C)cc2)c(O)n1[C@@H](C)c1cccc(C#N)c1` [Example 142, 3-[(1S)-1-{2-butyl-6-hydroxy-5-[4-(3-methylpyridin-4-yl)benzenesulfonyl]-4-oxo-1,4-dihydropyrimidin-1-yl}ethyl]benzonitrile] the value was 0.01 to 10 nM.
Take `CCCCc1nc(=O)c(S(=O)(=O)c2ccc(-c3ccc(F)nc3)cc2)c(O)n1[C@H](C)c1ccccc1` [Example 136, 2-butyl-5-[4-(6-fluoropyridin-3-yl)benzenesulfonyl]-6-hydroxy-1-[(1R)-1-phenylethyl]-1,4-dihydropyrimidin-4-one]: the half-maximal effective concentration (EC50) was in the range of 0.01 to 10 nM.
The same measure, in the same setting: with `CCCCc1nc(=O)c(S(=O)(=O)c2ccc(Cl)cc2)c(O)n1-c1c(OC)cccc1OC` [Example 3, 2-butyl-5-(4-chlorobenzenesulfonyl)-1-(2,6-dimethoxyphenyl)-6-hydroxy-1,4-dihydropyrimidin-4-one] the figure was 0.01 to 10 nM; with `CCCCc1nc(=O)c(S(=O)(=O)c2ccc(-c3ncn(C)n3)cc2)c(O)n1-c1c(OC)cccc1OC` [Example 80, 2-butyl-1-(2,6-dimethoxyphenyl)-6-hydroxy-5-[4-(1-methyl-1H-1,2,4-triazol-3-yl)benzenesulfonyl]-1,4-dihydropyrimidin-4-one], 0.01 to 10 nM.
